We go through 15 compounds from patent US6028053A, “Peptide inhibitors of a phosphotyrosine-binding domain containing protein” (Mount Sinai Hospital Corporation, priority 1998, dated 2000).

Square brackets hold non-standard residues; d marks the D form. Ends that are not written are not given here. Peptide text beside a SMILES is read from it. pY = N[C@@H](Cc1ccc(OP(=O)(O)O)cc1)C(=O)O

The first series addresses T1, Shc PTB domain (Homo sapiens, UniProt P29353).
T1 construct: containing 1 μM GST-Shc PTB domain fusion protein; made in house
T1 sequence (P29353 156-339 limits assumed): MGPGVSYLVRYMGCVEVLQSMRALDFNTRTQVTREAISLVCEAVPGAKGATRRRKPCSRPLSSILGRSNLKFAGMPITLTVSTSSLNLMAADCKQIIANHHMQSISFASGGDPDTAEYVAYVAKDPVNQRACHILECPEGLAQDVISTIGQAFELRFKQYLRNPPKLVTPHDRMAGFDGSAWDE
Kind of series: Surface plasmon resonance competition of GST-Shc PTB domain binding to immobilized polyoma middle T antigen phosphopeptide.
Conditions: not given
The procedure: Surface plasmon resonance analysis was carried out using a Biacore apparatus (Pharmacia Biosensor) as described previously (Puil et al., 1994). The peptide L-S-L-L-S-N-P-T-p.Y-S-V-M-R-S-K (SEQ ID NO:23) was immobilized to a biosensor chip through injection of a 0.5 mM solution of the phosphopeptide, in 50 mM HEPES, pH 7.5 and 2 M NaCl, across the chip surface previously activated following procedures outlined by the manufacturer. Injection of anti-phosphotyrosine antibody was used to confirm that successful immobilization of the peptide was achieved. Solutions (100 μl) containing 1 μM GST-Shc PTB domain fusion protein and the indicated concentrations of soluble phosphopeptide in 50 mM Na phosphate, pH 7.5, 150 mM NaCl, 0.1 mM EDTA, and 2 mM DTT, were injected across the surface. The amount of bound GST-Shc PTB domain was estimated from the surface plasmon resonance signal at a fixed time following the end of the injection and the percentage bound, relative to injection of GST-Shc PTB domain alone, calculated. The surface was regenerated using 2 M Guanidinium-HCl.
(In general: SPR reads the build-up and loss of mass on a sensor chip optically.)
Turning to `CC[C@H](C)[C@H](NC(=O)[C@@H](N)Cc1c[nH]cn1)C(=O)N[C@@H](C)C(=O)N[C@@H](CCC(=O)O)C(=O)N[C@@H](CC(N)=O)C(=O)N1CCC[C@H]1C(=O)N[C@@H](CCC(N)=O)C(=O)N[C@@H](Cc1ccc(OP(=O)(O)O)cc1)C(=O)N[C@@H](Cc1ccccc1)C(=O)N[C@@H](CO)C(=O)N[C@@H](CC(=O)O)C(=O)O` [H-I-A-E-N-P-Q-P.Y-F-S-D, His-Ile-Ala-Glu-Asn-Pro-Gln-P.Tyr-Phe-Ser-Asp] (H-HIAENPQ[pY]FSD-OH), the IC50 amounted to 250 nM.

Compound `C[C@H](NC(=O)[C@H](C)NC(=O)[C@@H](N)Cc1c[nH]cn1)C(=O)N[C@@H](CCC(=O)O)C(=O)N[C@@H](CC(N)=O)C(=O)N1CCC[C@H]1C(=O)N[C@@H](CCC(N)=O)C(=O)N[C@@H](Cc1ccc(OP(=O)(O)O)cc1)C(=O)N[C@@H](Cc1ccccc1)C(=O)N[C@@H](CO)C(=O)N[C@@H](CC(=O)O)C(=O)O` [H-A-A-E-N-P-Q-P.Y-F-S-D, H-A-A-E-N-P-Q-p.Y-F-S-D] (H-HAAENPQ[pY]FSD-OH) yielded an IC50 of 475 nM. Still for that read-out and setting: in the case of `CC[C@H](C)[C@H](N)C(=O)N[C@@H](CCC(=O)O)C(=O)N[C@@H](CC(N)=O)C(=O)N1CCC[C@H]1C(=O)N[C@@H](CCC(N)=O)C(=O)N[C@@H](Cc1ccc(OP(=O)(O)O)cc1)C(=O)N[C@@H](Cc1ccccc1)C(=O)N[C@@H](CO)C(=O)N[C@@H](CC(=O)O)C(=O)O` [IENPQpYFSD] (H-IENPQ[pY]FSD-OH) it was 4000 nM; in that of `CC[C@H](C)[C@H](NC(=O)[C@H](C)NC(=O)[C@@H](N)Cc1c[nH]cn1)C(=O)N[C@@H](CCC(=O)O)C(=O)N[C@@H](CC(N)=O)C(=O)N1CCC[C@H]1C(=O)N[C@@H](CCC(N)=O)C(=O)N[C@@H](Cc1ccc(OP(=O)(O)O)cc1)C(=O)N[C@@H](Cc1ccccc1)C(=O)N[C@@H](CO)C(=O)N[C@@H](CC(=O)O)C(=O)O` [H-A-I-E-N-P-Q-P.Y-F-S-D, His-Ala-Ile-Glu-Asn-Pro-Gln-P.Tyr-Phe-Ser-Asp] (H-HAIENPQ[pY]FSD-OH), 20 nM.

The compound `CC[C@H](C)[C@H](NC(=O)[C@@H](NC(=O)[C@@H](N)Cc1c[nH]cn1)[C@@H](C)CC)C(=O)N[C@@H](CCC(=O)O)C(=O)N[C@@H](CC(N)=O)C(=O)N1CCC[C@H]1C(=O)N[C@@H](CCC(N)=O)C(=O)N[C@@H](Cc1ccc(OP(=O)(O)O)cc1)C(=O)N[C@@H](Cc1ccccc1)C(=O)N[C@@H](CO)C(=O)N[C@@H](CC(=O)O)C(=O)O` [H-I-I-E-N-P-Q-P.Y-F-S-D, His-Ile-Ile-Glu-Asn-Pro-Gln-P.Tyr-Phe-Ser-Asp] (H-HIIENPQ[pY]FSD-OH) came in with an IC50 of 175 nM.

The series is the same for the next values; noted with them: peptide concentration inhibiting by 50% binding of 1 μM GST-Shc PTB domain to immobilized polyoma middle T antigen phosphopeptide; read-out: IC 50.
For `C[C@H](NC(=O)[C@@H](N)Cc1c[nH]cn1)C(=O)N[C@@H](CO)C(=O)N[C@@H](CCC(=O)O)C(=O)N[C@@H](CC(N)=O)C(=O)N1CCC[C@H]1C(=O)N[C@@H](CCC(N)=O)C(=O)N[C@@H](Cc1ccc(OP(=O)(O)O)cc1)C(=O)N[C@@H](Cc1ccccc1)C(=O)N[C@@H](CO)C(=O)N[C@@H](CC(=O)O)C(=O)O` [H-A-S-E-N-P-Q-P.Y-F-S-D, H-A-S-E-N-P-Q-p.Y-F-S-D] (H-HASENPQ[pY]FSD-OH), the IC50 is 15000 nM. Consider `CC(C)C[C@H](NC(=O)[C@H](Cc1ccc(OP(=O)(O)O)cc1)NC(=O)[C@H](CCC(=O)O)NC(=O)[C@@H]1CCCN1C(=O)[C@H](CC(N)=O)NC(=O)[C@H](CO)NC(=O)[C@H](CO)NC(=O)[C@H](C)NC(=O)[C@@H](N)Cc1ccc(O)cc1)C(=O)N[C@@H](CO)C(=O)N[C@@H](C)C(=O)O` [Y-A-S-S-N-P-E-P.Y-L-S-A, Y-A-S-S-N-P-E-p.Y-L-S-A] (H-YASSNPE[pY]LSA-OH), for which the IC50 amounted to 7000 nM.

`CC[C@H](C)[C@H](NC(=O)[C@@H](NC(=O)[C@@H](N)Cc1c[nH]cn1)[C@@H](C)CC)C(=O)N[C@@H](CCC(=O)O)C(=O)N[C@@H](C)C(=O)N1CCC[C@H]1C(=O)N[C@@H](CCC(N)=O)C(=O)N[C@@H](Cc1ccc(OP(=O)(O)O)cc1)C(=O)N[C@@H](Cc1ccccc1)C(=O)N[C@@H](CO)C(=O)N[C@@H](CC(=O)O)C(=O)O` [H-I-I-E-A-P-Q-P.Y-F-S-D, His-Ile-Ile-Glu-Ala-Pro-Gln-P.Tyr-Phe-Ser-Asp] (H-HIIEAPQ[pY]FSD-OH): the IC50 is 80000 nM. As to `CC[C@H](C)[C@H](NC(=O)[C@H](C)NC(=O)[C@@H](N)Cc1ccc(O)cc1)C(=O)N[C@@H](CO)C(=O)N[C@@H](CC(N)=O)C(=O)N1CCC[C@H]1C(=O)N[C@@H](CCC(=O)O)C(=O)N[C@@H](Cc1ccc(OP(=O)(O)O)cc1)C(=O)N[C@@H](CC(C)C)C(=O)N[C@@H](CO)C(=O)N[C@@H](C)C(=O)O` [Y-A-I-S-N-P-E-P.Y-L-S-A, Tyr-Ala-Ile-Ser-Asn-Pro-Glu-P.Tyr-Leu-Ser-Ala] (H-YAISNPE[pY]LSA-OH), the IC50 was determined as 90 nM. Still for that read-out and setting: to `CC[C@H](C)[C@H](NC(=O)[C@@H](NC(=O)[C@@H](N)Cc1c[nH]cn1)[C@@H](C)CC)C(=O)N[C@@H](CCC(=O)O)C(=O)N[C@@H](CC(N)=O)C(=O)N[C@@H](C)C(=O)N[C@@H](CCC(N)=O)C(=O)N[C@@H](Cc1ccc(OP(=O)(O)O)cc1)C(=O)N[C@@H](Cc1ccccc1)C(=O)N[C@@H](CO)C(=O)N[C@@H](CC(=O)O)C(=O)O` [H-I-I-E-N-A-Q-P.Y-F-S-D, His-Ile-Ile-Glu-Asn-Ala-Gln-P.Tyr-Phe-Ser-Asp] (H-HIIENAQ[pY]FSD-OH) belongs 2500 nM.

The next series concerns cells. Kind of series: Peptide localization in cells (anti-phospho-Tyr immunofluorescence). The format is cell-based.
Conditions: not given
The procedure: To examine peptide localization, cells were treated with P-1 or P-2 peptide for 4 hours, stained with anti-phospho-Tyr and rhodamine-conjugated antibody, and observed with a confocal microscope. A Z-scan was carried out to make images in each 0.15 μm section from the top of the cells to the bottom. […] Cells treated with P-1 peptide were not stained by anti-phospho-Tyr antibody, confirming the specifity of the immunofluoroscence staining. In a time course analysis, cells were serum-starved for 24 hours, and incubated with peptide (5 μM) for various time periods. Cells were stained by anti-phosphoro-Tyr antibody and analyzed under an immunofluoroscence microscope. Cells treated with P-2 peptide retained phospho-peptide for up to 24 hrs. In a dose response experiment, cells were starved in serum-free medium for 24 hours, cultured with peptide at various concentrations, and stained with anti-phospho-tyrosine antibody (4G10) to detect the peptide containing phospho-tyrosine residue (red) and by Hoechst 33258 for nuclei (blue). P-2 peptide was detected at 0.5 μM and 1 μM in cells .
As to “RQIKIWFQNRRMKWKKHIIENPQYFSD [P-1, RQIKIWFQNRRMKWKK-HIIENPQYFSD]”, the “peptide localization in cells” value is reported as “not stained”.

In the next series the target is T2, Shc PTB domain (GST-ShcB) binding to activated EGF-R (Homo sapiens, UniProt P29353).
T2 construct: made in house
T2 sequence (P29353 156-339 limits assumed): T1 sequence (P29353 156-339 limits assumed)
Kind of series: In vitro binding assay: competitive inhibition of EGF receptor binding to GST-ShcB in HER14 lysates. The conditions noted are these: 100 μM; FIG. 10 Panel A; read-out: inhibition of association of Shc and EGF-R. The procedure: HER14 cells (3T3 cells expressing EGF-R) were starved in 0.5% CS media for 24 hours and stimulated with 100 ng/ml EGF for 5 min. Cells were lysed and mixed with GST, GST-ShcB or GST-R175M beads. Proteins which bound to beads were resolved on SDS-PAGE and detected by anti-phospho-Tyr antibody (4G10) or by anti-EGF-R.
The peptides listed in Table 2 were added to cell lysates at 5 μM, incubated for 30 min., and treated with GST-ShcB beads. Proteins bound to GST-ShcB were detected by anti-phospho-Tyr antibody. […] The experiment was repeated with the peptides dissolved in DMSO (FIG. 9).
`CC[C@H](C)[C@@H]1NC(=O)CNC(=O)[C@@H]2CCCN2C(=O)[C@H](CO)NC(=O)[C@H](Cc2ccccc2)NC(=O)[C@H](Cc2ccc(OP(=O)(O)O)cc2)NC(=O)[C@H](CCC(N)=O)NC(=O)[C@@H]2CCCN2C(=O)[C@H](CC(N)=O)NC(=O)[C@H](CCC(=O)O)NC1=O` [C-1, Cyclo-(IENPQpYFSPG)] (cyclo(ENPQ[pY]FSPGI)): the inhibition at 100 µM was roughly 50%.

The series is the same for the next values; noted with them: dose response, cyclic peptides, 5 μM; FIG. 10 Panel A.
Regarding `NC(=O)CC[C@@H]1NC(=O)[C@@H]2CCCN2C(=O)[C@H](CC(N)=O)NC(=O)CNC(=O)[C@H](Cc2ccc(OP(=O)(O)O)cc2)NC1=O` [C-4, Cyclo-(NPQpYG)] (cyclo(GNPQ[pY])), the “inhibition of association of Shc and EGF-R” value is given as “did not inhibit”. The same measure, in the same setting: in the case of `NC(=O)CC[C@@H]1NC(=O)[C@@H]2CCCN2C(=O)[C@H](CC(N)=O)NC(=O)CNC(=O)CNC(=O)[C@H](Cc2ccc(OP(=O)(O)O)cc2)NC1=O` [C-5, Cyclo-(NPQpYGG)] (cyclo(GGNPQ[pY])) it was “did not inhibit”.

For `NC(=O)CC[C@@H]1NC(=O)[C@@H]2CCCN2C(=O)[C@H](CC(N)=O)NC(=O)[C@H](Cc2ccc(OP(=O)(O)O)cc2)NC1=O` [C-3, Cyclo-(NPQpY)] (cyclo(NPQ[pY])), the “inhibition of association of Shc and EGF-R” value was “did not inhibit”.

One may read the inhibition as the relative decrease from the control value, in per cent.
